Columns and labels:
P-gp expression = assay: Flow cytometric analysis of P-gp expression; format: cell-based, human; conditions: 72 h; 5 µM 5, 200 nM 7, 100 nM 9, 10 nM TQ, 50 nM DOX, 50 nM PTX
Method: P-glycoprotein expression level in NCI-H460, NCI-H460/R, DLD1, and DLD1-TxR and cells was measured by flow cytometry. All cell lines were seeded in adherent 6-well plates and treated with Hsp90 inhibitors for 72 h at the following concentrations: 5 µM compound 5, 200 nM compound 7, 100 nM compound 9 (NCI-H460 and DLD1), and 10 µM compound 5, 500 nM compound 7, 500 nM compound 9 (NCI-H460/R and DLD1-TxR). Cells were also treated with 10 nM TQ, a non-competitive P-gp inhibitor, which served as a positive control. In addition, sensitive cells (NCI-H460 and DLD1) were treated with 50 nM DOX and 50 nM PTX that served as positive controls for the induction of P-gp expression. Then, cells were collected by trypsinization, washed with PBS, and directly immunostained by FITC-conjugated anti-P-gp antibody according to the manufacturer’s protocol. The samples were kept in the dark until the analysis on CyFlow Space Partec flow cytometer (Sysmex Partec GmbH, Görlitz, Germany). The fluorescence of FITC-conjugated anti-P-gp was detected on fluorescence channel 1 (FL1-H) at 530 nm. A minimum of 10,000 events were collected for each sample (the gate excluded cell debris and dead cells) and the obtained results were analyzed with Summit software v4.3 (Dako Colorado Inc., Fort Collins, CO, USA).

NCI-H460/R cells [1] = assay: Combined treatment of compound 5 with DOX, MTT, median effect analysis; format: cell-based, human; conditions: Homo sapiens, NCI-H460, 72 h, DOX alone, 72 h
Method: The combined effects of compound 5 with DOX as well as with PTX were studied in NCI-H460/R and DLD1-TxR cells, respectively, by MTT assay. In simultaneous treatments that lasted 72 h in NCI-H460/R cells, three concentrations of compound 5 (2.5, 5, and 10 µM) were combined with increasing concentrations of DOX (250, 500 and 1000 nM), while in DLD1-TxR cells different concentrations of compound 5 (1, 2.5, and 5 µM) were combined with increasing concentrations of PTX (100, 250 and 500 nM). The nature of the interaction between Hsp90 inhibitors and DOX/PTX was analyzed with CalcuSyn software v1.1 (Biosoft, Cambridge, UK) that uses the Combination Index method based on the multiple drug effect equation [54]. Three data points were used for each single drug in each experiment. The non-constant ratio combination was chosen to assess the effect of both drugs in combination. The results are presented in a fraction-affected CI graph. Values of CI < 1 point to a pronounced additive effect or synergism (the smaller value, the greater the degree of synergy). A value of CI = 1 indicates an additive effect, while values of CI > 1 point to an antagonistic effect.

NCI-H460/R cells [2] = assay: MTT assay, cell growth inhibition, NCI-H460/R (MDR); format: cell-based, human
Method: (§1) A series of 3-aryl-naphtho[2,3-d]isoxazole-4,9-diones were synthesized (Scheme 1, Figure 1) and their growth inhibition activity was tested in vitro on human non-small cell lung carcinoma NCI-H460, colorectal carcinoma DLD1 and their corresponding MDR cells (NCI-H460/R and DLD1-TxR, respectively), as well as normal embryonic lung fibroblasts MRC-5. The differences in cell growth inhibition between cancer and normal cells obtained by the MTT assay after 72 h treatment are presented in Table 1. The effect of compounds is presented as IC50 values that correspond to the 50% of cell growth inhibition.
(§2) Human colorectal carcinoma (DLD1), non-small cell lung carcinoma (NCI-H460), and normal embryonic lung fibroblast (MRC-5) cell lines were purchased from the American Type Culture Collection, Rockville, MD. P-gp overexpressing multidrug resistant DLD1-TxR cells were selected by continuous exposure to stepwise increasing concentrations of paclitaxel from DLD1 cells, while NCI-H460/R cells were selected from NCI-H460 cells after DOX selective pressure. MDR cancer cell lines, DLD1-TxR and NCI-H460/R, and their sensitive counterparts were maintained in RPMI 1640 medium supplemented with 10% FBS, 2 mM L-glutamine, and 10,000 U/mL penicillin, 10 mg/mL streptomycin, 25 mg/mL amphotericin B solutions. MRC-5 cells were cultured in DMEM supplemented with 10% FBS, 4 g/L glucose, 2 mM L-glutamine and 5000 U/mL penicillin, 5 mg/mL streptomycin solution. All cell lines were sub-cultured at 72 h intervals using 0.25% trypsin/EDTA and seeded into a fresh medium at 8000 cells/cm^2. All cell lines were maintained at 37 °C in a humidified 5% CO2 atmosphere.
(§3) Cell viability was assessed by the MTT assay (AppliChem GmbH, Darmstadt, Germany). Cells grown in 25 cm^2 tissue flasks were trypsinized and 1000 cells/well were seeded into flat-bottomed 96-well tissue culture plates and incubated overnight. Subsequently, the cells were treated with increasing concentrations of Hsp90 inhibitors for 72 h: compound 3 (0.1–2.5 µM), compound 4 (0.25–5 µM), compound 5 (0.5–25 µM), compound 6 (50–1000 nM), compound 7 (10–250 nM), compound 8 (0.25–5 µM), compound 9 (10–250 nM), compound 10 (0.5–25 µM), compound 13 (0.5–10 µM), compound 14 (1–25 µM), and compound 15 (10–250 nM). […] After treatment, MTT was added to each well in a final concentration of 0.2 mg/mL for 4 h. Formazan product was dissolved in 200 µl of DMSO, and the absorbance was measured at 540 nm using an automatic LKB 5060-006 Micro Plate Reader (Vienna, Austria). IC50 value was defined as a concentration of the drug that inhibited cell growth by 50% and was calculated by nonlinear regression analysis using GraphPad Prism 6.0 for Windows (La Jolla, CA, USA). Relative selectivity towards cancer cells was calculated as a relation between IC50 value obtained in MRC-5 cells and an average IC50 value from four tested cancer cell lines.

P-gp = P-gp (Homo sapiens, UniProt P08183); assay: Rhodamine 123 accumulation assay (P-gp activity, flow cytometry); format: cell-based; set-up: P-gp overexpressing multidrug resistant DLD1-TxR cells were selected by continuous exposure to stepwise increasing concentrations of paclitaxel from DLD1 cells; endogenous in cells; host or cells: NCI-H460/R and DLD1-TxR (drug-selected MDR human cancer cells); conditions: MDR NCI-H460/R and DLD1-TxR cells, 30 min, one concentration per compound (100 nM-10 µM), Figure 3a
Method: To study the effect of Hsp90 inhibitors on P-gp activity in MDR cancer cells, intracellular accumulation of the P-gp substrate rhodamine 123 (Rho 123) was analyzed by flow cytometry after 30 min treatment (Figure 3a). A well-known inhibitor of P-gp activity, tariquidar (TQ), was included as a positive control.
The accumulation of Rho 123, a fluorescent P-gp substrate, was measured by flow cytometry. The intensity of the fluorescence is proportional to Rho 123 accumulation in the cell. All cell lines were seeded in adherent 6-well plates and grown overnight. DLD1-TxR and NCI-H460/R cells were treated for 30 min with the following concentrations of Hsp90 inhibitors: 500 nM compound 3, 1 µM compound 4, 10 µM compound 5, 500 nM compound 6, 500 nM compound 7, 1 µM compound 8, 500 nM compound 9, 1 µM compound 10, 1 µM compound 13, 10 µM compound 14, 100 nM compound 15. TQ (10 nM) was used as a positive control for Rho 123 accumulation. Rho 123 (5 μM) was simultaneously added with the investigated compounds and the cells were incubated at 37 °C in 5% CO2 for 30 min. The cells were then trypsinized, pelleted by centrifugation, washed with PBS and placed in ice-cold PBS. The samples were kept on ice in the dark until the analysis on CyFlow Space Partec flow cytometer (Sysmex Partec GmbH, Görlitz, Germany). The fluorescence of Rho 123 was detected on fluorescence channel 1 (FL1-H) at 530 nm. A minimum of 10,000 events were collected for each sample and the obtained results were analyzed using Summit software.

[3] = test system: NCI-H460, NCI-H460/R, DLD1, DLD1-TxR cells; assay: MTT assay, grouping of inhibitors by IC50 over the cancer cell lines; format: cell-based; conditions: Homo sapiens, Figure 2b, read-out: IC50 values (grouping for Pearson correlation)
Method: When the IC50 values obtained by the MTT assay were compared to Hsp90 affinity binding IC50 values (Table 1), a positive Pearson correlation (r > 0.5) was found for all cancer cell lines (Figure 2b).
as §3

MRC-5 cells = assay: MTT assay, normal embryonic lung fibroblasts MRC-5; format: cell-based, human
Method: as §1, §3

Hsp90 = test system: Hsp90; set-up: method as in PMID 22538015; conditions: read-out: Hsp90 Affinity binding; cited from earlier work
NCI-H460 cells = assay: MTT assay, cell growth inhibition, NCI-H460; format: cell-based; conditions: Homo sapiens, 72 h, three independent experiments
Method: as §1, §3

DLD1 cells = assay: MTT assay, cell growth inhibition, DLD1; format: cell-based; conditions: Homo sapiens, DLD-1, 72 h
Method: as §1, §3

DLD1-TxR cells = assay: MTT assay, cell growth inhibition, DLD1-TxR (MDR); format: cell-based, human; conditions: 72 h
Method: as §1, §2, §3

Chain of P-gp (P08183 whole entry): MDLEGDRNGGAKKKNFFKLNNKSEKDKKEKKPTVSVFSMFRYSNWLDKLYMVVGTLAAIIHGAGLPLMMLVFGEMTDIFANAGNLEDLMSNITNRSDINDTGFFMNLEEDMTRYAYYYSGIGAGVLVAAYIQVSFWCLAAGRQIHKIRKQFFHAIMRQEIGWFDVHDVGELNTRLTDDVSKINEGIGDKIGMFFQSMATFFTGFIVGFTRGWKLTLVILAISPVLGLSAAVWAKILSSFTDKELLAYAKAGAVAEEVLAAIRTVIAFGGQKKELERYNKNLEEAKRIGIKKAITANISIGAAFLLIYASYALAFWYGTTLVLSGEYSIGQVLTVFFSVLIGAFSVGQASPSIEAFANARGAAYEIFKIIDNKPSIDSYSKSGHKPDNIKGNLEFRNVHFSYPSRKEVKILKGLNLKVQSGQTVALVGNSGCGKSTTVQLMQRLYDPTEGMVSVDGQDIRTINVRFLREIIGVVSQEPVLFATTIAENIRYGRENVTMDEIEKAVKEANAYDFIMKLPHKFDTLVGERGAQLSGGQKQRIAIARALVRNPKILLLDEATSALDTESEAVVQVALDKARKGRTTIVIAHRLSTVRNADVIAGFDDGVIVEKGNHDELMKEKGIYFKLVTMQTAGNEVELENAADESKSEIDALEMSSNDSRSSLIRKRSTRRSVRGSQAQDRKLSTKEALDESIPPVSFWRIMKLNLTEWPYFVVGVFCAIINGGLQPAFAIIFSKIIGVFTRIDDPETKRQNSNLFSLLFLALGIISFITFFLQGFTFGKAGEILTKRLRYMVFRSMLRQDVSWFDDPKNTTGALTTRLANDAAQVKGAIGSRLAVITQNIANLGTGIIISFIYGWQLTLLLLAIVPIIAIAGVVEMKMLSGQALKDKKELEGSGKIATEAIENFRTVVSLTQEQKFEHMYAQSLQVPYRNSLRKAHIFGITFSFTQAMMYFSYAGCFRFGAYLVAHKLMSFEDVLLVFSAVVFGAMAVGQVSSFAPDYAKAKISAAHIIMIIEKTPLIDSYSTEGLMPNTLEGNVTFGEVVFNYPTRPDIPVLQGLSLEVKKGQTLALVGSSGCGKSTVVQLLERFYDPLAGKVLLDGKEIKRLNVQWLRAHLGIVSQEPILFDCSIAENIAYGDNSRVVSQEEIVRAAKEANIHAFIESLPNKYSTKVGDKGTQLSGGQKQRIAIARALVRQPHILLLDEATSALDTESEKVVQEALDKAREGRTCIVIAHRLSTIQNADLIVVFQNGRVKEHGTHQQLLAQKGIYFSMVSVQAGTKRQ

For `COc1cccc2c1C(=O)c1c(O)c3c(c(O)c1C2=O)C[C@@](O)(C(=O)CO)C[C@@H]3O[C@H]1C[C@H](N)[C@H](O)[C@H](C)O1` [DOX, doxorubicin], the “Change in P-gp expression, DLD1” value (P-gp expression) was “significantly increased P-gp expression”, the “Change in P-gp expression, NCI-H460” value (P-gp expression) was “significantly increased P-gp expression” and the IC50 (NCI-H460/R cells [1]) was 2270 ± 42.4 nM.

For `O=C1c2ccccc2C(=O)c2c(-c3ccc(OCCN4CCOCC4)cc3)noc21` [Compound 6], the “Efficacy in MDR NCI-H460/R cells compared with sensitive NCI-H460” value (NCI-H460/R cells [2]; 72 h) was “collateral sensitivity”, the IC50 (NCI-H460/R cells [2]; Homo sapiens, NCI-H460, 72 h, MDR cells) was 472 ± 18 nM and the “P-gp activity / Rho 123 accumulation” value (P-gp) was “did not have any positive effects”. The IC50 [3] was under 1000 nM, the IC50 (MRC-5 cells; Homo sapiens, MRC5, MTT, 72 h, normal fibroblasts, read-out: Cell growth inhibition IC50, MRC-5) was 4740 ± 473 nM and the “Relative Selectivity” value (MRC-5 cells; IC50 in MRC-5 cells / average IC50 of four cancer cell lines) was 8.79. The IC50 (Hsp90) was 1200 nM, the IC50 (NCI-H460 cells) was 807 ± 35 nM and the IC50 (DLD1 cells) was 439 ± 6 nM. The “Efficacy in MDR DLD1-TxR cells compared with sensitive DLD1” value (DLD1-TxR cells) was “evaded resistance” and the IC50 (DLD1-TxR cells; Homo sapiens, MDR cells) was 439 ± 10 nM.
